# Results reported in patent US20130331389A1, “Methods and Compositions for Cardiomyocyte Replenishment by Endogenous and Progenitor Stem Cells” (NATIONAL CHENG KUNG UNIVERSITY, priority 2012, published 2013).
# Columns and labels:
# Sca-1 = assay: Quantitative RT-PCR of Sca-1 in infarct zone of MI heart; assay type: in vivo, mouse; conditions: young mice, day 3 post-MI
# Procedure: (§1) To induce Cre recombination to achieve GFP labeling of cardiomyocytes, tamoxifen (Sigma) was dissolved in sunflower oil (Sigma) at a concentration of 5 mg/ml. The tamoxifen solution was injected intraperitoneally into M/Z mice daily at a dosage of 40 μg per 1 g body weight for 14 days, and the same dosage was injected twice daily for short-term labeling using methods known in the art (Laugwitz, K.-L. et al. Nature 433, 647-653 (2005)). All experimental conditions were optimized prior to the PGE2, indomethacin and TGF-β Type I Receptor Kinase Inhibitor II (ALK5 Inhibitor II, ALK5i, Merck) treatments. The mice treated with PGE2 or PGI2 (Vegiopoulos, A. et al. Science 328, 1158-1161 (2010)) (both from Sigma) were injected intraperitoneally with 3.33 ng of drug per 1 g of body weight dissolved in absolute ethanol twice daily. For the indomethacin treatment, mice were fed with water containing indomethacin (Sigma, 15 μg/ml) for different periods of time. The indomethacin-containing water was changed every 3 days. The mice subjected to the celecoxib (Lyons, T. R. et al. Nat. Med. 17, 1109-1115 (2011)) (Sigma) treatment were injected intraperitoneally with 5 μg of drug per 1 g of body weight daily. For ALK5i treatment, aged mice were injected intraperitoneally once per day with 1 μg of drug per 1 g of body weight one day before surgery and continuously until day 10 post-MI. Celecoxib and ALK5i were dissolved in ethanol and DMSO, respectively.
# The total RNA isolated from the ischemic region or remote area of MI hearts was reverse transcribed using the SuperScript III (Invitrogen) system according to the manufacturer's protocol. For quantitative PCR, the SYBR Green reagent (Maestrogen) was used according to the manufacturer's protocol. The analysis of relative gene expression was performed using the 2̂[−delta delta Ct] method and sequence-specific primers designed for semi-quantitative PCR and real-time RT-PCR (FIG. 11).
# MerCreMer/ZEG (M/Z) mice = assay: Cardiomyocyte replenishment after myocardial infarction, GFP+ / β-Gal+ cardiomyocyte counting; assay type: in vivo, mouse
# Procedure: All experiments involving animals were conducted in accordance with the Guide for the Use and Care of Laboratory Animals, and all animal protocols have been approved by National Cheng Kung University. Sca-1^− GFP, B6.Cg-Tg(Ly6a-GFP)G5Dzk/J and EP2^−/−, B6.129-Ptger2^tm/Brey/J mice were obtained from Jackson Laboratory. The double transgenic MerCreMer/ZEG (M/Z) mice were generated by crossbreeding MerCreMer and Z/EG mice (Jackson Laboratory), which have C57BL/6SV129 and C57BL/6J (N7) background strains, respectively. The MerCreMer mice contain a tamoxifen-inducible Cre recombinase fusion protein driven by the cardiomyocyte-specific α-MHC promoter. In Z/EG mice, GFP replace constitutive β-Gal expression after the removal of a LoxP-flanked stop sequence by Cre.
# M/Z mice were subjected to experimental myocardial infarction (MI) one month after the last tamoxifen injection. MI was generated by ligating the left anterior descending coronary artery at 2-3 mm distal to the left atrial appendage. For cell transplantation experiments, intramyocardial injections were performed immediately after coronary ligation. A total of 6×10^5 cardiac Sca-1^+ cells were injected per mouse in two divided injections (5 μl/injection). For BrdU labeling, the mice were subcutaneously implanted with osmotic minipump (Alzet) at the time of surgery and 40 μg/μl of BrdU (Sigma) was administrated. For immunohistological studies, mice were sacrificed and the hearts were harvested at different time points following experimental MI surgery. Cardiac performances were assessed by echocardiography at 28 and 56 days after operation using Vevo 770 (Visualsonics, Toronto, Canada).
# as §1
# All of the cellular quantifications were performed double-blindly to minimize personal bias. […] For the cardiomyocyte cell counts, 3 sections from each heart, and 2 infarction border zones and 1 remote area from each section were analyzed at a magnification of 200× by light microscopy. Cells with visible sarcomere structures were analyzed, and the average number of cells counted was 171.8±5.8 per photo image. For the small cardiac cell counts, more than five sections from each heart were analyzed at a magnification of 400× using fluorescence microscopy. The average number of cells counted was 17.01±0.99 per photo image, and more than one hundred and fifty cells were analyzed from each heart. As quantification result is the averaged values calculated from the pictures taken from six border zone sections per heart, personal variation has been minimized. […]
smiles,measurement,setting,value
COc1ccc2c(c1)c(CC(=O)O)c(C)n2C(=O)c1ccc(Cl)cc1 [indomethacin],Sca-1 expression,Sca-1,repressed
same,stem cell-dependent cardiomyocyte reconstitution,MerCreMer/ZEG (M/Z) mice; administered more than 5 days post-MI (Indo 9 D),no significant effect
same,drop of cardiomyocyte restoration rate,"MerCreMer/ZEG (M/Z) mice; border zone, Indo 14D (1 day before and 14 days after MI), 15 μg/ml in water, P<0.05",about 10%
same,cardiomyocyte replenishment,"MerCreMer/ZEG (M/Z) mice; border zone, given during the first 5 days post-MI (Indo 5 D), P<0.05",sufficient to impair cardiomyocyte replenishment
same,MI-induced cardiomyocyte replenishment,"MerCreMer/ZEG (M/Z) mice; remote area, indomethacin in water",abrogated
Cc1cccc(-c2[nH]ncc2-c2ccc3ncccc3n2)n1 [ALK5i],cardiomyocyte replenishment in comparison with the vehicle control group,"MerCreMer/ZEG (M/Z) mice; aged mice, 1 μg per 1 g i.p. once per day from one day before surgery until day 10 post-MI, day 14 post-MI, P<0.01",restored cardiomyocyte replenishment
"CCCCC[C@H](O)/C=C/[C@@H]1[C@H]2C/C(=C/CCCC(=O)O)O[C@H]2C[C@H]1O [PGI2, prostaglandin I2]",significant increase of cardiomyocyte replenishment compared to the vehicle control (in words),"MerCreMer/ZEG (M/Z) mice; border zone, 3.33 ng per 1 g i.p. twice daily for 14 days",not
